Assay [1] has as its target T1, SARS-CoV-2 PLpro (nsp3 1564–1878) (Severe acute respiratory syndrome coronavirus 2, UniProt P0DTD1). Description: biochemical. Also noted: FRET-quenched peptide (Pro3) cleavage by PLpro, 10 min pre-incubation, slope over 20 min, normalised to no-compound control. The following applies: low concentration screen, read-out: % of control remaining.
In assay [2] the target is T1, SARS-CoV-2 PLpro (nsp3 1564–1878). Description: biochemical. Particulars: high concentration screen, read-out: % of control remaining. More on the design: FRET-quenched peptide (Pro3) cleavage by PLpro, 10 min pre-incubation, slope over 20 min, normalised to no-compound control.
Experimental: The plates were organized with columns 3–22 containing the compounds; the remaining columns were used for reaction controls including substrate only and substrate with enzyme but no compound (Figure 3Aii). The PLpro enzyme was pre-incubated with the compounds for 10 min, and then the reaction was initiated by the addition of substrate. […] We incubated the inhibitors with PLpro before the enzymatic reaction so that the slow-binding inhibitors will not be missed out [21]. […] Fluorescence was read on a Spark multimode microplate reader (Tecan) with an excitation wavelength at 330 nm and emission wavelength at 420 nm. […] An amount of 5 µl of the enzyme was pre-incubated with compounds for 10 min before the addition of 15 µl substrate. Fluorescence was monitored at 2 min for 20 min with 3 min intervals giving a total of seven readings.

The results in this text go back to paper PMC8286840, “Identifying SARS-CoV-2 antiviral compounds by screening for small molecule inhibitors of Nsp3 papain-like protease” (Biochemical Journal, 2021).

Structures can show the parent of a compound that is named as a salt. Where two headings read alike, the source gives them in different places. Where a SMILES comes first, the peptide text is derived from it.

Consider `CCCCC/C=C\C/C=C\C/C=C\C/C=C\CCCC(=O)O` [Arachidonic acid], for which the remaining activity at 1.25 µM in assay [1] (Well no.=4301) is 104%; in assay [1] (Well no.=4446), 95.8%. The remaining activity at 3.75 µM in assay [2] (Well no.=4301) came out at 101%; in assay [2] (Well no.=4446), 97.5%.
For `CCOC(=O)c1c(CSc2ccccc2)n(C)c2cc(Br)c(O)c(CN(C)C)c12` [Arbidol HCl], the remaining activity at 1.25 µM in assay [1] (Well no.=5098) came to 104%. Also, in assay [2] (Well no.=5098), the remaining activity at 3.75 µM was 107%.
Turning to `OC[C@H]1O[C@@H](Oc2ccc(O)cc2)[C@H](O)[C@@H](O)[C@@H]1O` [Arbutin], in assay [1] (Well no.=3478), the remaining activity at 1.25 µM was determined as 103%. For the same compound, the remaining activity at 3.75 µM in assay [2] (Well no.=3478) turned out to be 101%.
Regarding `NC(N)=NCCCCN=C(N)N` [Arcaine sulfate], in assay [1] (Well no.=293), the remaining activity at 1.25 µM was 99.2%. For the same compound, in assay [2] (Well no.=293), the remaining activity at 3.75 µM is 96.8%.
Consider `COc1cc(C[C@H]2C(=O)OC[C@@H]2Cc2ccc(OC)c(OC)c2)ccc1O` [Arctigenin - (3R,4R)-4-[(3,4-Dimethoxyphenyl)methyl]dihydro-3-[(4-hydroxy-3-methoxyphenyl)methyl]-2(3H)-furanone], for which the remaining activity at 1.25 µM in assay [1] (Well no.=2446) is 105%. For the same compound, in assay [2] (Well no.=2446), the remaining activity at 3.75 µM turned out to be 105%.
For `O=C1NC(=O)c2c1c1c3ccccc3[nH]c1c1[nH]c3ccccc3c21` [Arcyriaflavin A - 12,13-Dihydro-5H-indolo[2,3-a]pyrrolo[3,4-c]carbazole-5,7(6H)-dione], in assay [1] (Well no.=2532), the remaining activity at 1.25 µM was determined as 102%. In assay [2] (Well no.=2532), the remaining activity at 3.75 µM came to 100%.
With `O=C1NC(=O)c2c1c1c3ccccc3[nH]c1c1[nH]c3ccccc3c21` [Arcyriaflavin A, Synthetic], the remaining activity at 1.25 µM in assay [1] (Well no.=2333) is 105%. Besides, the remaining activity at 3.75 µM in assay [2] (Well no.=2333) came to 102%.
On to `C#CCOC(=O)C1=CCCN(C)C1` [Arecaidine propargyl ester hydrobromide], for which, in assay [1] (Well no.=254), the remaining activity at 1.25 µM amounted to 97.1%. In addition, the remaining activity at 3.75 µM in assay [2] (Well no.=254) is 98.4%.
Consider `NC(N)=NCCC[C@H](N)C(=O)NCC(=O)N[C@@H](CC(=O)O)C(=O)N[C@@H](CS)C(=O)O` [Arg-Gly-Asp-Cys] (H-RGDC-OH), for which the remaining activity at 1.25 µM in assay [1] (Well no.=8126) was determined as 99.2%. In addition, the remaining activity at 3.75 µM in assay [2] (Well no.=8126) was determined as 97.3%.
As for `NC(N)=NCCC[C@H](N)C(=O)NCC(=O)N[C@@H](CC(=O)O)C(=O)N[C@@H](CO)C(=O)O` [Arg-Gly-Asp-Ser], the remaining activity at 1.25 µM in assay [1] (Well no.=7938) is 95.5%. Besides, in assay [2] (Well no.=7938), the remaining activity at 3.75 µM worked out at 95.3%.
Take `NC(N)=NCCC[C@H](N)C(=O)NCC(=O)N[C@@H](CCC(=O)O)C(=O)N[C@@H](CO)C(=O)O` [Arg-Gly-Glu-Ser(TFA)] (H-RGES-OH): the remaining activity at 1.25 µM in assay [1] (Well no.=7924) came to 96.4%. The remaining activity at 3.75 µM in assay [2] (Well no.=7924) came to 97.3%.
`CC1CNc2c(cccc2S(=O)(=O)N[C@@H](CCCNC(=N)N)C(=O)N2CC[C@@H](C)C[C@@H]2C(=O)O)C1` (stereo partly shown) [Argatroban (monohydrate)]: in assay [1] (Well no.=8454), the remaining activity at 1.25 µM came to 103%. In assay [2] (Well no.=8454), the remaining activity at 3.75 µM worked out at 101%.
As for `CC1CNc2c(cccc2S(=O)(=O)N[C@@H](CCCNC(=N)N)C(=O)N2CC[C@@H](C)C[C@@H]2C(=O)O)C1` (stereo partly shown) [Argatroban], the remaining activity at 1.25 µM in assay [1] (Well no.=2196) was 97.1%. For the same compound, the remaining activity at 3.75 µM in assay [2] (Well no.=2196) amounted to 97.9%.
In the case of `N[C@](CCCCB(O)O)(CCN1CCCCC1)C(=O)O` [Arginase inhibitor 1], the remaining activity at 1.25 µM in assay [1] (Well no.=8697) was determined as 106%. The remaining activity at 3.75 µM in assay [2] (Well no.=8697) is 105%.
As to `O=C1CCc2ccc(OCCCCN3CCN(c4cccc(Cl)c4Cl)CC3)cc2N1` [Aripiprazole], the remaining activity at 1.25 µM in assay [1] (Well no.=1844) was 93.9%; in assay [1] (Well no.=8237) it was 102%. The results for the remaining activity at 3.75 µM in assay [2] (Well no.=1844) and in assay [2] (Well no.=8237) were 95.9% and 95.5%, respectively.
With `COc1cccc2c1cc([N+](=O)[O-])c1c(C(=O)O)cc3c(c12)OCO3` [Aristolochic acid A], the remaining activity at 1.25 µM in assay [1] (Well no.=3081) was determined as 106%. The remaining activity at 3.75 µM in assay [2] (Well no.=3081) came out at 103%.
As for `CO[C@H]1O[C@@H]2O[C@@]3(C)CC[C@H]4[C@H](C)CC[C@@H]([C@H]1C)[C@@]24OO3` [Artemether (SM-224)], the remaining activity at 1.25 µM in assay [1] (Well no.=5188) was determined as 94.9%. Besides, the remaining activity at 3.75 µM in assay [2] (Well no.=5188) is 97.4%.
Turning to `C[C@H]1[C@H](OC(=O)CCC(=O)O)O[C@@H]2O[C@@]3(C)CC[C@H]4[C@H](C)CC[C@@H]1[C@@]24OO3` [Artesunate], the remaining activity at 1.25 µM came to 100% in assay [1] (Well no.=2200) and 96% in assay [1] (Well no.=3083). The remaining activity at 3.75 µM in assay [2] (Well no.=2200) was found to be 98.2%; in assay [2] (Well no.=3083) it was 102%.
Consider `CCCNC(C)C(=O)Nc1c(C)csc1C(=O)OC` (stereo not shown) [Articaine HCl], for which the remaining activity at 1.25 µM in assay [1] (Well no.=5367) is 95.8%. Besides, the remaining activity at 3.75 µM in assay [2] (Well no.=5367) is 94.3%.
As for `CC[C@@H]1/C=C(\C)C[C@H](C)C[C@H](OC)[C@H]2O[C@@](O)(C(=O)C(=O)N3CCCC[C@H]3C(=O)O[C@H](/C(C)=C/[C@@H]3CC[C@@H](O)[C@H](OC)C3)[C@H](C)[C@@H](O)CC1=O)[C@H](C)C[C@@H]2OC` [Ascomycin], the remaining activity at 1.25 µM came out at 102% in assay [1] (Well no.=6638) and 98% in assay [1] (Well no.=7410). Also, the results for the remaining activity at 3.75 µM in assay [2] (Well no.=6638) and in assay [2] (Well no.=7410) were 98.9% and 96.8%, respectively.
Consider `O=C1O[C@H]([C@@H](O)CO)C(O)=C1O` [Ascorbic acid], for which, in assay [1] (Well no.=4039), the remaining activity at 1.25 µM was 99.8%. Also, in assay [2] (Well no.=4039), the remaining activity at 3.75 µM was determined as 99.5%.
As to `CCCCCCCCCCCCCCCC(=O)OC[C@H](O)[C@H]1OC(=O)C(O)=C1O` [Ascorbyl palmitate], the remaining activity at 1.25 µM in assay [1] (Well no.=4041) was determined as 102%. Also, the remaining activity at 3.75 µM in assay [2] (Well no.=4041) came out at 105%.
As to `C[C@H]1[C@H](C)CC[C@]2(C(=O)O)CC[C@]3(C)C(=CC[C@@H]4[C@@]5(C)C[C@@H](O)[C@H](O)[C@@](C)(CO)[C@@H]5CC[C@]43C)[C@H]12` [Asiatic acid], in assay [1] (Well no.=3509), the remaining activity at 1.25 µM turned out to be 100%. Besides, the remaining activity at 3.75 µM in assay [2] (Well no.=3509) was 103%.
On to `COC(=O)[C@H](Cc1ccccc1)NC(=O)[C@@H](N)CC(=O)O` [Aspartame] (H-Asp-Phe-OMe), for which the remaining activity at 1.25 µM in assay [1] (Well no.=5048) is 100%; in assay [1] (Well no.=7302), 102%. For the same compound, the remaining activity at 3.75 µM in assay [2] (Well no.=5048) worked out at 101%; in assay [2] (Well no.=7302), 102%.
For the compound `CC1=C(/C=C/C(C)=C/C=C/C(C)=C/C=C/C=C(C)/C=C/C=C(C)/C=C/C2=C(C)C(=O)[C@@H](O)CC2(C)C)C(C)(C)C[C@H](O)C1=O` [Astaxanthin], the remaining activity at 1.25 µM in assay [1] (Well no.=296) came out at 93.3%. In addition, the remaining activity at 3.75 µM in assay [2] (Well no.=296) was determined as 92.4%.
With `COc1ccc(CCN2CCC(Nc3nc4ccccc4n3Cc3ccc(F)cc3)CC2)cc1` [Astemizole], the remaining activity at 1.25 µM in assay [1] (Well no.=2054) is 102%. Moreover, in assay [2] (Well no.=2054), the remaining activity at 3.75 µM stood at 102%.
For the compound `C[C@@H]1O[C@@H](O[C@H]2C(=O)c3c(O)cc(O)cc3O[C@@H]2c2ccc(O)c(O)c2)[C@H](O)[C@H](O)[C@H]1O` [Astilbin], the remaining activity at 1.25 µM in assay [1] (Well no.=6924) came out at 114%. In addition, the remaining activity at 3.75 µM in assay [2] (Well no.=6924) came out at 106%.
